Molecules are shown by their SMILES. Like-named read-outs stand apart in the source and are kept apart here.

One series is described as follows: stability to storage. Type of series: physicochemical. To be noted: result in words. On the procedure: A modification of the procedure of Newman et al., J. Med. Chem. 30: 1901, 1987, was used. In this procedure, 1,3-phenylenediamine, 0.211 grams, 1.95 mmol, was dissolved in 80 ml chloroform. Thirty ml water and 0.38 gram, 4.5 mmol, sodium bicarbonate was added, and the mixture was stirred vigorously. After ten minutes, 0.4 ml, 5.2 mmol of freshly distilled thiophosgene was added. After one hour, the phases were separated, and the organic layer was dried over sodium sulfate and evaporated. The residue was triturated with ether:petroleum ether, 1:1, and filtered. The filtrate was evaporated, leaving the product as a white solid (0.30 g, 81% yield), melting at 50.5°-51° C.

For series [1], the system named is A1-adenosine receptors. The experiment in a line: covalent labeling of solubilized central A1 receptor preparation, SDS electrophoresis. The following applies: tritiated 4b, SDS gel, with or without high concentration of R-PIA. Type of series: binding.
Description: An SDS electrophoresis gel separated proteins from a solubilized central A1 receptor preparation, pretreated with compound 4b (lane 1).
In another series the target is T1, A1 adenosine receptors (Rattus norvegicus, UniProt P25099).
T1 construct: A1 adenosine receptors in rat cerebral cortex membranes; from tissue; host or cells: rat cerebral cortex membranes
T1 sequence (P25099 1-326): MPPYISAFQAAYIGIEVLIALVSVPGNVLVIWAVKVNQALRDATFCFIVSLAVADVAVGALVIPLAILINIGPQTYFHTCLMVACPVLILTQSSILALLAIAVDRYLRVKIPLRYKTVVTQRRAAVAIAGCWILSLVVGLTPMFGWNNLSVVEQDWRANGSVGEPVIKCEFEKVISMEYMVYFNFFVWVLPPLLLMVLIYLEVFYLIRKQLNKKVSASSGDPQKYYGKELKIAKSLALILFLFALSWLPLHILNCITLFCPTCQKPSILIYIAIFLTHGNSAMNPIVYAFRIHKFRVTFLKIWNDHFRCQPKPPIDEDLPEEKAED
The experiment in a line: inhibition of binding of [3H]N6-phenylisopropyladenosine ([3H]PIA) to A1 adenosine receptors in rat cerebral cortex membranes. On the procedure:
Ukena et al., FEBS Letters 209;122, 1986.
For the biochemical assays, stock solutions of xanthines in the millimolar concentration range in dimethylsulfoxide were prepared and stored frozen. The solutions were warmed to 50° C. prior to dilution in aqueous medium. […] Acad. Sci. USA, 83:4089, 1986. Inhibition of binding by a range of concentrations of a xanthine or adenosine derivative was assessed in triplicate in at least three separate experiments.

Series [2] can be described thus: chemical reactivity towards primary amines (thin layer chromatography). Type of series: physicochemical. The following applies: ethylene diamine in molar excess, TLC.
In series [3] the target is T2, central A1 receptors (Bos taurus, UniProt P28190).
T2 construct: A1 -adenosine receptors in membranes form calf brain; from tissue; host or cells: calf brain membranes
T2 sequence (P28190 1-326): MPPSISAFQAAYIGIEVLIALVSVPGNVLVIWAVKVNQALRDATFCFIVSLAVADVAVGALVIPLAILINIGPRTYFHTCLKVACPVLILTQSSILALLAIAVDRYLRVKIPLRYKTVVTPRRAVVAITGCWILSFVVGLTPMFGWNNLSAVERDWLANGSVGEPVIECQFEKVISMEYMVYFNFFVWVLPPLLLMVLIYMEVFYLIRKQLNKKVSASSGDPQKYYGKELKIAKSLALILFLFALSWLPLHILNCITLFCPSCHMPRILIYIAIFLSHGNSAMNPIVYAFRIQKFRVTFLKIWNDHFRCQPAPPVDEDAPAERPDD
The experiment in a line: inhibition of radioligand binding at central A1 receptors, calf brain membranes. The source says: ^b against [^125 I]APNEA (i.e. N^6
^b against [^125 I]APNEA;
The compounds, at concentrations relative to the Ki -values obtained, were screened for the ability to inhibit competitive binding of the radioligands [^3 H]PIA to rat brain membranes and [^3 H]XAC to bovine brain membranes, a shown in Table 1.

In the next series the target is T3, rat brain membranes (Rattus norvegicus, UniProt P25099).
T3 construct: A1 -adenosine receptors in rat brain membranes; from tissue; host or cells: rat brain membranes
T3 sequence (P25099 1-326): T1 sequence (P25099 1-326)
The experiment in a line: inhibition of [3H]XAC binding to rat brain membranes (blocking experiments).

Series [4] concerns the target T4, central A1 receptors (Rattus norvegicus, UniProt P25099).
T4 construct: A1 -adenosine receptors in rat brain membranes; from tissue; host or cells: rat brain membranes
T4 sequence (P25099 1-326): T1 sequence (P25099 1-326)
In kind it is binding.

Series [5] concerns A1-adenosine receptors. Briefly: irreversible inhibition of [3H]XAC binding sites after one hour incubation and washout, bovine brain membranes. The arrangement: species or system bovine (calf).
[6] abbreviates: Table I, rat, against [3H]PIA, read-out: Ki at central A1 receptors, rat.
[7] abbreviates: Table I, calf, against [125I]APNEA, read-out: Ki at central A1 receptors, calf.

As to `S=C=Nc1cccc(N=C=S)c1` [Compound 5a, 1,3-phenyldiisothiocyanate], in “stability to storage”, the stability to storage result is “stable to storage at room temperature for at least several weeks”.
On to `CCCn1c(=O)c2nc(-c3ccc(OCC(=O)NCCN=C(S)Nc4ccc(N=C=S)cc4)cc3)[nH]c2n(CCC)c1=O` [Compound 4b], for which the “covalent labeling of A1-adenosine receptor” value in the series on A1-adenosine receptors [1] is recorded as “Specific labeling of the receptor (MW approximately 40,000)”. For the same compound, the Ki at A1 adenosine receptors (setting [6]) stood at 6.6 ± 1.31 nM; on central A1 receptors [3], 1 nM; on rat brain membranes it was 22 nM. For the same compound, the “reactivity towards primary amines” value in series [2] is “quantitatively reactive towards primary amines”. For the same compound, the remaining activity at 0.1 µM at central A1 receptors [4] (1 h, read-out: remaining receptor binding sites after treatment (of initial density)) is 34%. Also, the “irreversible inhibition of A1-adenosine receptors, rat brain membranes” value at central A1 receptors [4] (rat brain, result in words) was “irreversibly inhibits A1 -adenosine receptors in membranes form calf brain and from rat brain in a dose-dependent manner”. The inhibition at 0.1 µM on central A1 receptors [4] (read-out: % inhib (conc)) is 63%. Moreover, the “irreversible inhibition of central A1-adenosine receptors” value at central A1 receptors [4] (result in words) is recorded as “behave pharmacologically as irreversible inhibitors of central A1 -adenosine receptors”. In addition, the stability to storage result in “stability to storage” is “stable to storage at -20 °C”. In the series on A1-adenosine receptors [5] (500 nM, one hour incubation, bovine brain membranes, [3H]XAC binding), the “adenosine receptor binding sites irreversibly inhibited” value came to 90%. The “irreversible inhibition of A1-adenosine receptors, calf brain membranes” value in the series on A1-adenosine receptors [5] (calf/bovine brain, result in words) was “irreversibly inhibits A1 -adenosine receptors in membranes form calf brain and from rat brain in a dose-dependent manner”.
With `CCCn1c(=O)c2[nH]c(-c3ccc(OCC(=O)NCCNC(=S)Nc4ccc(NC(=S)NCCN)cc4)cc3)nc2n(CCC)c1=O` [ethylene diamine adduct], on rat brain membranes (rat brain membranes, [3H]XAC), the Ki was 18 nM.
For `O=C(Cc1ccc(NC(=O)Cc2ccc(Nc3ncnc4c3ncn4[C@@H]3O[C@H](CO)[C@@H](O)[C@H]3O)cc2)cc1)NCCNC(=S)Nc1cccc(N=C=S)c1` [Compound 28], the Ki at A1 adenosine receptors came out at 0.86 nM; at central A1 receptors [3] it was 0.1 nM. For the same compound, the inhibition at 0.05 µM at central A1 receptors [4] (read-out: % inhib (conc)) was over 80%. Also, the “irreversible inhibition of central A1-adenosine receptors” value at central A1 receptors [4] (result in words) is “behave pharmacologically as irreversible inhibitors of central A1 -adenosine receptors”.
With `CCCn1c(=O)c2[nH]c(-c3ccc(OCC(=O)NCCNC(=O)CCCCCCC(=O)ON4C(=O)CCC4=O)cc3)nc2n(CCC)c1=O` [Compound 21], the Ki was found to be 3.69 ± 0.71 nM on A1 adenosine receptors (setting [6]) and 15.8 nM on central A1 receptors [3] (setting [7]). For the same compound, the inhibition at 0.5 µM at central A1 receptors [4] (read-out: % inhib (conc)) was 40%. On central A1 receptors [4] (result in words), the “irreversible inhibition of central A1-adenosine receptors” value is given as “inhibits binding irreversibly”.
For `C[C@H](Cc1ccccc1)Nc1ncnc2c1ncn2[C@@H]1O[C@H](CO)[C@@H](O)[C@H]1O` [R-PIA, reference compound], the “covalent labeling of A1-adenosine receptor” value with A1-adenosine receptors [1] was “blocks the irreversible ligand”.
For the compound `CCCn1c(=O)c2[nH]c(-c3ccc(OCC(=O)NCCNC(=O)CCCCC(C)=O)cc3)nc2n(CCC)c1=O` [Compound 17], the Ki at A1 adenosine receptors (setting [6]) was determined as 44 ± 9 nM; on central A1 receptors [3] (read-out: Ki at central A1 receptors, calf), 3.2 nM. Also, at central A1 receptors [4] (read-out: % inhib (conc)), the inhibition at 0.5 µM amounted to 0%.
Take `CCCn1c(=O)c2[nH]c(-c3ccc(OCC(=O)NCC=O)cc3)nc2n(CCC)c1=O` [Compound 2b]: the Ki on A1 adenosine receptors (setting [6]) turned out to be 266 ± 40 nM; at central A1 receptors [3] (setting [7]), 1.5 ± 0.1 nM. Moreover, the “% inhib (conc)” value at central A1 receptors [4] (500 nM, one hour incubation and washout, rat brain membranes, against [125I]APNEA) was 0%.

The values above are taken from US5298508A, “Irreversible inhibitors of adenosine receptors” (priority 1992, dated 1994).
